One assay addresses N-domain of sACE-1 (Homo sapiens, UniProt P12821). As to the kind of experiment: Reversible inhibition of the N-domain of sACE-1, fluorogenic substrate Abz-SDK. Format: biochemical. To be noted: Abz-SDK(Dnp)P-OH 7.5, 10, 15 µM; absence of co-reactants.
A further assay has as its target C-domain of sACE-1 (Homo sapiens, UniProt P12821). Nature of the assay: Reversible inhibition of the C-domain of sACE-1, fluorogenic substrate Abz-LFK. The assay is classed as biochemical. To be noted: Abz-LFK(Dnp)-OH 7.5, 10, 15 µM; absence of co-reactants.
The conditions of assay [1]: ref [15],[24]; cited from earlier work.
The target of another assay is sACE-1 (Homo sapiens, UniProt P12821). Particulars: generic substrate of previous study; ref [30]; cited from earlier work.
Sequence of sACE-1 (P12821 30-1261): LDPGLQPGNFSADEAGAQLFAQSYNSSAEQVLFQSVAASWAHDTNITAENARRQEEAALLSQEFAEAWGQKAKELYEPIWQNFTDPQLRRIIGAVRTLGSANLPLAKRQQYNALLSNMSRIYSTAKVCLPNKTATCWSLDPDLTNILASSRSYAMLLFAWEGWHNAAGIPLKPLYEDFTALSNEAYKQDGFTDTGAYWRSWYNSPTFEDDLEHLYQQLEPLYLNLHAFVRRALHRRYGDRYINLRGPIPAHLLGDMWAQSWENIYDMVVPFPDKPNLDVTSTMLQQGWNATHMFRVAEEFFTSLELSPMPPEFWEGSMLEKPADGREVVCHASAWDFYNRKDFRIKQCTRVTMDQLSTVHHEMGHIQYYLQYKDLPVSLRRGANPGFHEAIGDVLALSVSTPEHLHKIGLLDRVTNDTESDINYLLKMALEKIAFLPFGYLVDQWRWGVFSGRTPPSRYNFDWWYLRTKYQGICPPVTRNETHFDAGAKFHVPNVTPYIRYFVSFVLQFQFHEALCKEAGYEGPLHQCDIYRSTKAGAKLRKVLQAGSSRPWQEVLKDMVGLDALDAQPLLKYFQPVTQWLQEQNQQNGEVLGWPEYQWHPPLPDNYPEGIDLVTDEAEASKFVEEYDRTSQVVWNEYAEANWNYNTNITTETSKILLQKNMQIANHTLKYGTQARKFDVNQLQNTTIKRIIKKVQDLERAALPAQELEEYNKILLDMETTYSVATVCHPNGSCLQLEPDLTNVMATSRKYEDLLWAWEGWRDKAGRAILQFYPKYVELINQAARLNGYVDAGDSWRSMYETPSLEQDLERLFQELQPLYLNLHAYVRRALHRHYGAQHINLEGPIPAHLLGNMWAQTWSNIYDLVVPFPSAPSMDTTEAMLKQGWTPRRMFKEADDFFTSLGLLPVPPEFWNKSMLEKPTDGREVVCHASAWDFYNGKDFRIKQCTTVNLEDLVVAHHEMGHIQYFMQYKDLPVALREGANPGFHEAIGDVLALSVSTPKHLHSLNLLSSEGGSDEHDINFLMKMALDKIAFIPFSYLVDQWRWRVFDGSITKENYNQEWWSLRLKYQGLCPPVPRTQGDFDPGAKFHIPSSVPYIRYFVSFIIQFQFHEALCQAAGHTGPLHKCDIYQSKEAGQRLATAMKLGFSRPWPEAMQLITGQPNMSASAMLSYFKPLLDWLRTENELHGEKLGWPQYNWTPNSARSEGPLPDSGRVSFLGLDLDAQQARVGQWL
For another assay, the system named is ACE. To be noted: ref [38]; cited from earlier work.
The conditions of assay [2]: in SHR; ref [38]; cited from earlier work.

*: point of attachment. Dnp = O=[N+]([O-])c1ccc(*)c([N+](=O)[O-])c1; Mca = COc1ccc2c(CC(=O)*)cc(=O)oc2c1

Sequence of C-domain of sACE-1 (P12821 30-1261): as above
Sequence of N-domain of sACE-1 (P12821 30-1261): as above

For `NCCCC[C@H](N[C@@H](CCc1ccccc1)C(=O)O)C(=O)N1CCC[C@H]1C(=O)O` [Lisinopril], the “Inhibition mode by Dixon plot (N-domain)” value on N-domain of sACE-1 is “competitive inhibitors”. Moreover, the “Inhibition mode by Dixon plot (C-domain)” value on C-domain of sACE-1 is listed as “competitive inhibitors”. Consider “Ac-Asp-(L)Pheψ(PO2-CH2)(L)Ala-Ala-NH2 [RXP407]”, for which the “Effect on blood pressure regulation” value in assay [1] was “no effect on blood pressure regulation”.

For “Mca-RPPGFSAFK(Dnp)-OH (SMILES COc1ccc2c(CC(=O)N[C@@H](CCCNC(=N)N)C(=O)N3CCC[C@H]3C(=O)N3CCC[C@H]3C(=O)NCC(=O)N[C@@H](Cc3ccccc3)C(=O)N[C@@H](CO)C(=O)N[C@@H](C)C(=O)N[C@@H](Cc3ccccc3)C(=O)N[C@@H](CCCCNc3ccc([N+](=O)[O-])cc3[N+](=O)[O-])C(=O)O)cc(=O)oc2c1)”, in the assay with sACE-1, the Km was 4.5 ± 0.6 µM and the kcat is 20.33 ± 0.833 s⁻¹.

In the case of Ile-Pro-Pro, the IC50 with ACE was 5 µM. Besides, the lowers blood pressure in assay [2] is recorded as not above 30 mmHg.

For orientation: Km means the substrate concentration at which the rate is half of its maximum. By kcat is commonly meant the maximal rate divided by the concentration of active sites. Usually IC50 stands for the midpoint of a concentration-inhibition curve.
